Source: US20130317048A1, “COMBINATION COMPRISING PACLITAXEL FOR TREATING OVARIAN CANCER” (Actelion Pharmaceuticals Ltd., priority 2008, published 2013)

How the values were obtained:
[1] = tested on: human ovarian carcinoma; settings: in vitro and in vivo; cited from earlier work
[2] = tested on: SKOV3ip1 cells; assay: Human SKOV3ip1 tumor growth inhibition assay in mice; format: in vivo; settings: mice i.p. SKOV3ip1, after one month of treatment, paclitaxel 5 mg/kg once a week i.p., CF(I) 100 mg/kg once a day oral
Description: An aqueous 0.5% (by weight) solution of methylcellulose is prepared by stiffing the appropriate quantity of methylcellulose in the appropriate quantity of water for 4 hours. This solution can be prepared up to 3 days in advance. On the day of the experiment, 0.05% (by volume) of Tween 80 is dissolved in the methylcellulose solution previously obtained to yield the vehicle solution.
(§1) 43 mice are injected i.p. with 10^6 SKOV3ip1 cells. Ten days later, the tumor weight is evaluated in three of the mice. Treatment with a suspension of the compound of formula (I) in the vehicle solution (10 mice), paclitaxel (Mead Johnson, Princeton, N.J., USA) diluted 1:6 in phosphate buffered saline (PBS) for i.p. injections (10 mice), a suspension of the compound of formula (I) in the vehicle solution as well as paclitaxel diluted 1:6 in PBS for further dilution and i.p. injections (10 mice), or the vehicle solution only (10 mice), the vehicle solution being as described above, is administered to the mice using the following doses, frequencies and routes: • paclitaxel: 5 mg/kg (125 μg paclitaxel in 200 μL PBS per mouse), once a week, i.p. route; • compound of formula (I): 100 mg/kg (as suspension in the vehicle solution at a concentration of up to 25 mg/mL), once a day, oral route.
After one month of treatment, the tumor incidence and weight are determined in each of the mice. At the same time, the ascite incidence and volume are also determined.

[3] = tested on: IGROV cells; assay: Human IGROV tumor growth inhibition assay in mice; format: in vivo; settings: female nude mice i.p. IGROV; after 4 weeks of treatment; paclitaxel 5 mg/kg once a week i.p.; CF(I) 50 mg/kg once a day oral
Description: (§2) The vehicle solution is the same as that described for the “Human SKOV3ip1 tumor growth inhibition assay in mice” (see above).
as §1, with “43 female nude” for “43”, “IGROV cells into the peritoneal cavity.” for “SKOV3ip1 cells.”, “paclitaxel” for “paclitaxel (Mead Johnson, Princeton, N.J., USA)”, “for” for “for further dilution and”, “50” for “100”
After 4 weeks of treatment, the tumor incidence and weight are determined in each of the mice.

[4] = tested on: HeyA8-MDR cells; assay: Multi-drug resistant human ovarian HeyA8-MDR tumor growth inhibition assay in mice; format: in vivo; settings: female nude mice i.p. HeyA8-MDR; after 4 weeks of treatment; paclitaxel 5 mg/kg once a week i.p.; CF(I) 50 mg/kg once a day oral
Description: as §2
43 female nude mice are injected i.p. with 10^6 HeyA8-MDR cells into the peritoneal cavity. Ten days later, the tumor weight is evaluated in three of the mice. Mice groups and treatments (doses, frequencies and routes) for the mice groups are the same as those described in the experimental procedure for the “Human IGROV tumor growth inhibition assay in mice” (see above). After 4 weeks of treatment, the tumor incidence and weight are determined in each of the mice.

[5] = tested on: ovarian cancer; settings: combined with paclitaxel; cited from earlier work
[6] = tested on: ovarian tumor cells; settings: in vitro; cited from earlier work

Row | SMILES | Ascite incidence [2] | Ascites (mL) Median (range) [2] | Body weight (g) Mean ± S.D. [2] [g] | Tumor incidence [2] | Tumor weight (g) Median (range) [2] | Body weight (g) Mean ± S.D. [3] [g] | Tumor incidence [3] | Tumor weight (g) Median (range) [3] | Body weight (g) Mean ± S.D. [4] [g] | Tumor incidence [4] | Tumor weight (g) Median (range) [4] | also measured
1 | COc1nc(C)cnc1NS(=O)(=O)c1cccnc1-c1ccc(-c2nnco2)cc1 [ZD4054] |  |  |  |  |  |  |  |  |  |  |  | Effect on tumor growth and paclitaxel activity [1]: inhibits tumor growth and enhances paclitaxel activity
2 | CC(=O)O[C@H]1C(=O)[C@@]2(C)[C@H]([C@H](OC(=O)c3ccccc3)[C@]3(O)C[C@H](OC(=O)[C@H](O)[C@@H](NC(=O)c4ccccc4)c4ccccc4)C(C)=C1C3(C)C)[C@]1(OC(C)=O)CO[C@@H]1C[C@@H]2O [Paclitaxel] | 4/9 | 0.1 (0-0.2) mL | 23.6 ± 1.9 | 9/9 | 0.4 (0.1-0.5) g | 28.5 ± 2.4 | 9/10 | 0.5 (0-0.9) g | 27.7 ± 3.7 | 10/10 | 1.0 (0.5-2.3) g | Ascite incidence ([2]; listed as paclitaxel): 4 out of 9; Tumor incidence ([2]; listed as paclitaxel): all mice still had tumors
3 | CCCCN(CCCC)C(=O)CN1C[C@H](c2ccc3c(c2)OCO3)[C@@H](C(=O)O)[C@@H]1c1ccc(OC)cc1 [ABT-627, atrasentan] |  |  |  |  |  |  |  |  |  |  |  | Effect of combination with paclitaxel [5]: additive antitumor, apoptotic and antiangiogenic effects
4 | CCCC[C@@H](NC(=O)[C@@H](Cc1cn(C(=O)OC)c2ccccc12)NC(=O)[C@H](CC(C)(C)C)NC(=O)N1[C@H](C)CCC[C@@H]1C)C(=O)O [BQ 788] |  |  |  |  |  |  |  |  |  |  |  | Inhibition of cell adhesiveness [6]: ineffective
5 | CCCNS(=O)(=O)Nc1ncnc(OCCOc2ncc(Br)cn2)c1-c1ccc(Br)cc1 [CF(I), macitentan] | 7/10 | 0.4 (0-4.7) mL | 25.5 ± 2.6 | 7/10 | 2.3 (0-4.6) g | 31.0 ± 4.4 | 10/10 | 0.7 (0.4-1.3) g | 27.0 ± 2.2 | 6/10 | 0.1 (0-0.3) g | Ascite incidence ([2]; listed as compound of formula (I)): 7 out of 10
